Read-outs that look alike come from different tables or passages of the source.
Key:
rats = conditions: rat, in vivo; cited from earlier work
human AML = system: human AML; set-up: method as in doi:10.1182/blood-2022-170544; conditions: murine tail-vein injection models of human AML; cited from earlier work
[1] = system: cultured human cancer cells; set-up: method as in PMID 33093447; conditions: wide variety of cultured human cancer cells; cited from earlier work
clinical = conditions: human, in vivo; for AUC(0-t): AUC0 − 24 (h*ng/mL) (mean, SD); for Cmax: Cmax (ng/ml) (mean, SD)
Experimental: (§1) Peripheral blood samples were collected over six time points in the first 8 h of Cycle 1, Day 1 (C1D1), and again on C1D15. Pre-treatment Day 1 levels were obtained with every subsequent cycle.

[2] = system: cell line derived xenografts from lung carcinomas; set-up: method as in Pacylex Inc., data on file; conditions: mice-bearing established human tumor xenografts, ref Pacylex Inc., data on file; cited from earlier work
[3] = set-up: method as in Pacylex, data on file; conditions: preclinical models; ref Pacylex, data on file; cited from earlier work
[4] = system: patient derived xenograft models of refractory DLBCL; set-up: method as in PMID 33093447; conditions: cited from earlier work
[5] = system: ADP-ribosylation factor 6 (ARF6); set-up: method as in Pacylex, data on file; conditions: cultured colon cancer cells; ref Pacylex, data on file; cited from earlier work
[6] = system: patients with advanced solid tumors and relapsed/refractory (R/R) B-cell lymphomas; test: Phase I dose escalation: safety, DLT, MTD/RP2D (NCI-CTCAE v5.0); assay type: in vivo; conditions: for Grade ≥ 3 treatment-related adverse events: Hypophosphatemia / Grade ≥ 3 treatment-related adverse events: Metabolism and nutrition disorders / Grade ≥ 3 treatment-related adverse events: Nausea / No. of pts with Gr ≥ 3 TRAEs: daily oral
Source text: A standard 3 + 3 design was used to assess for MTD and establish RP2D according to a pre-determined dose-escalation schema (Table 1). There was no intra-patient dose escalation. The MTD was defined as the dose level below the cohort in which 2 or more patients experienced a first cycle, zelenirstat attributable, dose-limiting toxicity (DLT), and the MTD required confirmation in at least 6 patients.
DLT was defined as any of the following: Grade (Gr) 4 thrombocytopenia, Gr 3 thrombocytopenia with bleeding, Gr 4 neutropenia ≥ 7 days, febrile neutropenia, clinically significant ≥ Gr 3 non-hematologic toxicity, or any significant toxicity warranting a withhold of zelenirstat. […] Toxicity was graded according to the National Cancer Institute Common Toxicity Criteria for Adverse Events (NCI-CTCAE) version 5.0.
For dose escalation, patients received daily oral zelenirstat on 28-day cycles. It was administered as 10 mg and 70 mg capsules, with instructions to take on an empty stomach each morning with 250 ml of tap water. Patients received zelenirstat until progressive disease, unacceptable toxicity, or withdrawal of consent.
Baseline imaging and hematology and blood chemistry were obtained within 4 weeks and 1 week of study entry, respectively. Baseline screening included a complete medical history, physical examination, assessment of ECOG performance status, and body weight. CT imaging was used for advanced solid tumors and B-cell NHL; PET-CT was optional for B-cell NHL. Weekly complete blood counts with white blood cell differentiation and blood chemistries were drawn for the first cycle, biweekly for cycle 2, and then prior to each 28-day cycle. Adverse events were evaluated weekly in the first cycle, biweekly for cycle 2, and before each subsequent cycle using the NCI-CTCAE version 5.0.

[7] = Plasma pharmacokinetics in phase I patients (UPLC-MS/MS); conditions: beyond Day 15
Experimental: as §1

[8] = human, in vivo
Experimental: as §1

[9] = oral once daily, 28-day cycles, patients

Cc1c(NS(=O)(=O)c2c(Cl)cc(-c3ccnc(N4CCNCC4)c3)cc2Cl)c(CC(C)C)nn1C [zelenirstat]
toxicities in formal toxicologic evaluation (rats): acute gastrointestinal and hematologic toxicities | leukemic cell burden (human AML): reduced the leukemic cell burden | effect on cultured human cancer cells [1]: cytotoxic or cytostatic | half-life (clinical; half-life values across the dose cohorts): 7.67 to 12 h | Tmax (clinical; maximum Tmax value in patients taking PPI): ~8 h | half-life (clinical; mean terminal half-life across the dose cohorts): 6.7 to 9.5 h | Tmax (clinical; median Tmax range in patients taking proton pump inhibitors (PPI)): 1 to 6 h | AUC(0-t) (clinical; po, 20 mg): 1580 ng·h/mL | Cmax (clinical; po, 20 mg): 359 ng/mL | Tmax (clinical; po, 20 mg, Tmax (h) (median, range)): 2 h | half-life (clinical; po, 20 mg, t1/2 (h) (mean, SD)): 6.7 h | AUC(0-t) (clinical; po, 40 mg): 4820 ng·h/mL | Cmax (clinical; po, 40 mg): 848 ng/mL | half-life (clinical; po, 40 mg, t1/2 (h) (mean, SD)): 9.2 h | AUC(0-t) (clinical; po, 70 mg): 5650 ng·h/mL | Cmax (clinical; po, 70 mg): 665 ng/mL | Tmax (clinical; po, 70 mg, Tmax (h) (median, range)): 3.9 h | half-life (clinical; po, 70 mg, t1/2 (h) (mean, SD)): 9.5 h | AUC(0-t) (clinical; po, 100 mg): 24700 ng·h/mL | Cmax (clinical; po, 100 mg): 2300 ng/mL | Tmax (clinical; po, 100 mg, Tmax (h) (median, range)): 4 h | half-life (clinical; po, 100 mg, t1/2 (h) (mean, SD)): 12 h | AUC(0-t) (clinical; po, 140 mg): 11900 ng·h/mL | Cmax (clinical; po, 140 mg): 1770 ng/mL | Tmax (clinical; po, 140 mg, Tmax (h) (median, range)): 1 h | half-life (clinical; po, 140 mg, t1/2 (h) (mean, SD)): 7.2 h | AUC(0-t) (clinical; po, 210 mg): 14700 ng·h/mL | Cmax (clinical; po, 210 mg): 1770 ng/mL | Tmax (clinical; po, 210 mg, Tmax (h) (median, range)): 3 h | half-life (clinical; po, 210 mg, t1/2 (h) (mean, SD)): 7.8 h | Tmax (clinical; po, median Tmax values across the dose cohorts): 1 to 4 h | half-life (clinical; po, terminal half-lives, average): 10 h | Tmax (clinical; po, time of peak plasma concentrations): 2 h | xenograft tumor response [2]: tumor growth inhibition | oral bioavailability [3]: high oral bioavailability | xenograft tumor response [4]: profound tumor regression and complete remissions | myristoylation of ARF6 [5]: inhibits the myristoylation | Grade ≥ 3 treatment-related adverse events: Hypophosphatemia ([6]; 20 mg (N = 3)): 0 n, % | Grade ≥ 3 treatment-related adverse events: Metabolism and nutrition disorders ([6]; 20 mg (N = 3)): 0 n, % | Grade ≥ 3 treatment-related adverse events: Nausea ([6]; 20 mg (N = 3)): 0 n, % | No. of pts with Gr ≥ 3 TRAEs ([6]; 20 mg (N = 3)): 0 n, % | Grade ≥ 3 treatment-related adverse events: Hypophosphatemia ([6]; 40 mg (N = 3)): 0 n, % | Grade ≥ 3 treatment-related adverse events: Metabolism and nutrition disorders ([6]; 40 mg (N = 3)): 0 n, % | Grade ≥ 3 treatment-related adverse events: Nausea ([6]; 40 mg (N = 3)): 0 n, % | No. of pts with Gr ≥ 3 TRAEs ([6]; 40 mg (N = 3)): 0 n, % | Grade ≥ 3 treatment-related adverse events: Hypophosphatemia ([6]; 70 mg (N = 3)): 0 n, % | Grade ≥ 3 treatment-related adverse events: Metabolism and nutrition disorders ([6]; 70 mg (N = 3)): 0 n, % | Grade ≥ 3 treatment-related adverse events: Nausea ([6]; 70 mg (N = 3)): 0 n, % | No. of pts with Gr ≥ 3 TRAEs ([6]; 70 mg (N = 3)): 1 (33) n, % | Grade ≥ 3 treatment-related adverse events: Hypophosphatemia ([6]; 100 mg (N = 5)): 0 n, % | Grade ≥ 3 treatment-related adverse events: Metabolism and nutrition disorders ([6]; 100 mg (N = 5)): 0 n, % | Grade ≥ 3 treatment-related adverse events: Nausea ([6]; 100 mg (N = 5)): 0 n, % | No. of pts with Gr ≥ 3 TRAEs ([6]; 100 mg (N = 5)): 0 n, % | Grade ≥ 3 treatment-related adverse events: Hypophosphatemia ([6]; 140 mg (N = 3)): 0 n, % | Grade ≥ 3 treatment-related adverse events: Metabolism and nutrition disorders ([6]; 140 mg (N = 3)): 0 n, % | Grade ≥ 3 treatment-related adverse events: Nausea ([6]; 140 mg (N = 3)): 0 n, % | No. of pts with Gr ≥ 3 TRAEs ([6]; 140 mg (N = 3)): 0 n, % | Grade ≥ 3 treatment-related adverse events: Hypophosphatemia ([6]; 210 mg (N = 7)): 0 n, % | Grade ≥ 3 treatment-related adverse events: Metabolism and nutrition disorders ([6]; 210 mg (N = 7)): 0 n, % | Grade ≥ 3 treatment-related adverse events: Nausea ([6]; 210 mg (N = 7)): 0 n, % | No. of pts with Gr ≥ 3 TRAEs ([6]; 210 mg (N = 7)): 0 n, % | Grade ≥ 3 treatment-related adverse events: Hypophosphatemia ([6]; 280 mg (N = 5)): 1 (20) n, % | Grade ≥ 3 treatment-related adverse events: Metabolism and nutrition disorders ([6]; 280 mg (N = 5)): 1 (20) n, % | Grade ≥ 3 treatment-related adverse events: Nausea ([6]; 280 mg (N = 5)): 1 (20) n, % | No. of pts with Gr ≥ 3 TRAEs ([6]; 280 mg (N = 5)): 4 (80) n, % | evaluable patients with first cycle dose-limiting gastrointestinal toxicities ([6]; 280 mg daily cohort): Three | neuropathy ([6]; dose cohorts up to and including 210 mg): No neuropathy was reported | Gr 2 thrombocytopenia, patients ([6]; dose cohorts up to and including 210 mg, resolved despite continuation at full dose): 12% | maximum tolerated dose (MTD) [6, 9]: 210 mg | recommended phase 2 dose (RP2D) [6, 9]: 210 mg | drug-induced QT prolongation ([6]; pre- and post-dose ECG assessments, patients): no evidence of drug-induced QT prolongation | first cycle (or any cycle) DLTs ([6]; six evaluable patients, 210 mg per day cohort): absence of first cycle (or any cycle) DLTs | accumulation over multiple cycles (pre-dose concentrations) [7]: no accumulation was apparent beyond Day 15 | Plasma concentrations (Cmax and AUC values) in patients on PPIs compared to patients not taking PPIs [8]: tended to be lower | Systemic exposure (Cmax and AUC values) versus dose [8]: tended to increase with increasing dose | time to steady state (visual observation of pre-dose concentrations) [8]: 8 to 15 days | accumulation following repeated administration ([8]; 14 day): < 2 fold | accumulation ratio for AUC0 − 24 (ArAUC0−24) ([8]; 14 day): 1.0-1.9 | accumulation ratio for Cmax (ArCmax) ([8]; 14 day): 0.41-1.72 | accumulation ratios for both ArCmax and ArAUC0−24 ([8]; 14 days): 3-6 fold | time to steady state ([8]; po): ≤ 15 days | AUC0 − 24 (h*ng/mL) (mean, SD) ([8]; po, 20 mg): 2066 (387) h*ng/mL | Cmax (ng/ml) (mean, SD) ([8]; po, 20 mg): 276 (117) ng/ml | Tmax (h) (median, range) ([8]; po, 20 mg): 1 (0.5–2.1) h | t1/2 (h) (mean, SD) ([8]; po, 20 mg): 7.4 (2.0) h | AUC0 − 24 (h*ng/mL) (mean, SD) ([8]; po, 40 mg): 7060 (6711) h*ng/mL | Cmax (ng/ml) (mean, SD) ([8]; po, 40 mg): 774 (720) ng/ml | t1/2 (h) (mean, SD) ([8]; po, 40 mg): 9.7 (3.0) h | AUC0 − 24 (h*ng/mL) (mean, SD) ([8]; po, 70 mg): 6613 (3526) h*ng/mL | Cmax (ng/ml) (mean, SD) ([8]; po, 70 mg): 467 (257) ng/ml | Tmax (h) (median, range) ([8]; po, 70 mg): 4.1 (4.0-7.9) h | AUC0 − 24 (h*ng/mL) (mean, SD) ([8]; po, 100 mg): 18,936 (9188) h*ng/mL | Cmax (ng/ml) (mean, SD) ([8]; po, 100 mg): 2188 (1037) ng/ml | Tmax (h) (median, range) ([8]; po, 100 mg): 2.0 (2.0-3.8) h | t1/2 (h) (mean, SD) ([8]; po, 100 mg): 8.0 (2.3) h | AUC0 − 24 (h*ng/mL) (mean, SD) ([8]; po, 140 mg): 8150 (2846) h*ng/mL | Cmax (ng/ml) (mean, SD) ([8]; po, 140 mg): 1335 (964) ng/ml | Tmax (h) (median, range) ([8]; po, 140 mg): 2.0 (1.0–2.0) h | t1/2 (h) (mean, SD) ([8]; po, 140 mg): 10.4 (5.5) h | AUC0 − 24 (h*ng/mL) (mean, SD) ([8]; po, 210 mg): 27,558 (13,349) h*ng/mL | Cmax (ng/ml) (mean, SD) ([8]; po, 210 mg): 2935 (1047) ng/ml | Tmax (h) (median, range) ([8]; po, 210 mg): 2.0 (1.0-3.9) h | t1/2 (h) (mean, SD) ([8]; po, 210 mg): 7.7 (3.4) h
